Legend:
[1] = tested on: TP53 WT AML cell lines; experiment: Cell autonomous activity against TP53 WT AML cell lines; assay type: cell-based
Text: The remaining 5 cell lines were either medium-sensitive or completely resistant to Compound 1; the unresponsiveness to Compound 1 treatment was associated with inadequate accumulation of p53 protein and/or its transcriptional targets BAX and PUMA.

[2] = tested on: CD34+ cells from BM samples of TP53 WT AML donors; experiment: Liquid culture of CD34+ cells from TP53 WT AML donors (FACS); assay type: cell-based, human
Protocol: CD34^+ cells isolated from BM samples of 3 TP53 WT AML donors and 3 healthy donors were treated with increasing concentrations of Compound 1 in liquid culture at times ranging from 4 hours to 5 days. […] Acute myeloid leukemia blasts sustained CK1α degradation up to 5 days in culture as assessed by fluorescence-activated cell sorting (FACS) analysis. Strikingly, p53 stabilization was sustained longer in leukemic cells (up to 48 hours) compared with normal BM cells (for 24 hours).

[3] = Cardiovascular assessment (ECG, heart rate) in conscious cynomolgus monkeys; assay type: in vivo; details: oral gavage, 0.03-0.3 mg/kg, Regimens 1 and 2, 1 hour postdose
Protocol: Cardiovascular assessments (electrocardiograms [ECGs] and heart rates) were conducted in conscious cynomolgus monkeys as part of the Good Laboratory Practice (GLP)-compliant repeat dose toxicity study. In this study, Compound 1 was administered by oral gavage to Cynomolgus monkeys (5/sex/group) in Groups 1-5 at doses of 0 (0.5% (w/v) Methylcellulose, 0.25% (v/v) Tween 80 in 50 mM citrate buffer pH 3), 0.03, 0.1, 0.1 and 0.3 mg/kg, respectively, intermittently using 2 different dosing regimens. Groups 2 and 3 animals were dosed for 7 consecutive days in each 4-week cycle for 2 cycles (Regimen 1: on Days 1-7 and 29-35), whereas Groups 4 and 5 animals were dosed twice weekly for 4 weeks (Regimen 2: on Days 1, 4, 8, 11, 15, 18, 22 and 25). A combination of both dosing regimens (Days 1-7, 8, 11, 15, 18, 22, 25, and 29-35) was used for administration of the vehicle to the control animals. […] Qualitative (visual inspection) and quantitative assessments including heart rates and PR, QRS, RR, QT, and QTc intervals were performed. QTc was calculated using Bazett's formula.

[4] = target: T1, cloned hERG potassium channel expressed in the HEK-293 cell line (Homo sapiens, UniProt Q12809); experiment: hERG IonWorks Barracuda patch clamp electrophysiology assay; assay type: cell-based
T1 construct: expressed in transfected cells; host or cells: HEK-293
Protocol: (§1) The effect of Compound 1 on the cloned hERG potassium channel expressed in the HEK-293 cell line was also investigated. […] The percent inhibition at 30 μM was 19%.

[5] = target: T2, hERG potassium channel (Homo sapiens, UniProt Q12809); experiment: as above; assay type: cell-based; details: human, HEK-293 cells expressing cloned hERG potassium channel; at 30 μM; read-out: percent inhibition
T2 construct: expressed in transfected cells; host or cells: HEK-293
Protocol: as §1

[6] = Nonclinical pharmacokinetics in rats; assay type: in vivo
Text: (§2) The systemic clearance of Compound 1 was low and the volume of distribution was high in rats and monkeys. […] Notable sex differences in PK were not observed in either species. Compound 1 had good oral bioavailability (≥50%) in rats and monkeys.

[7] = Nonclinical pharmacokinetics in monkeys; assay type: in vivo
Text: as §2

[8] = target: T3, CYP2C9 (Homo sapiens, UniProt P11712); experiment: CYP inhibition in human liver microsomes, CYP2C9; assay type: in vitro ADME
T3 construct: In human liver microsomes; from tissue; host or cells: human liver microsomes

[9] = tested on: CYP3A4/5; experiment: CYP inhibition in human liver microsomes, CYP3A4/5; assay type: in vitro ADME
[10] = target: T4, CYP1A2 (Homo sapiens, UniProt P05177); experiment: CYP inhibition in human liver microsomes, CYP1A2; assay type: in vitro ADME
T4 construct: In human liver microsomes; from tissue; host or cells: human liver microsomes

[11] = target: T5, CYP2C19 (Homo sapiens, UniProt P33261); experiment: CYP inhibition in human liver microsomes, CYP2C19; assay type: in vitro ADME
T5 construct: In human liver microsomes; from tissue; host or cells: human liver microsomes

[12] = tested on: Salmonella typhimurium strains (TA1535, TA1537, TA98, TA100); experiment: Bacterial reverse mutation test, Salmonella typhimurium; assay type: cell-based
Protocol: Compound 1 was tested in Salmonella typhimurium strains (TA1535, TA1537, TA98, TA100) and Escherichia coli strain WP2 uvrA at a range of concentrations up to 5000 μg/plate (the standard limit concentration for this assay), in the presence and absence of a supplemented rat liver fraction (S9 mix), using the plate incorporation version of the bacterial reverse mutation test. Dimethyl sulfoxide (DMSO) was used as the solvent.
The mean revertant colony counts for the negative controls were within the laboratory historical control range. Bacteria were also incubated with standard positive controls, and the response of the various bacterial strains to these agents confirmed the sensitivity of the test system and the activity of the S9 mix. Therefore, the results from both the negative and positive controls confirmed the validity of the assay.
No substantial increases in revertant colony numbers were obtained with any of the tester strains, following exposure to Compound 1 at any concentration, in either the presence or absence of S9 mix. Therefore, Compound 1 was considered to be negative for the induction of mutagenicity in this in vitro assay.

T1 sequence (Q12809 whole entry): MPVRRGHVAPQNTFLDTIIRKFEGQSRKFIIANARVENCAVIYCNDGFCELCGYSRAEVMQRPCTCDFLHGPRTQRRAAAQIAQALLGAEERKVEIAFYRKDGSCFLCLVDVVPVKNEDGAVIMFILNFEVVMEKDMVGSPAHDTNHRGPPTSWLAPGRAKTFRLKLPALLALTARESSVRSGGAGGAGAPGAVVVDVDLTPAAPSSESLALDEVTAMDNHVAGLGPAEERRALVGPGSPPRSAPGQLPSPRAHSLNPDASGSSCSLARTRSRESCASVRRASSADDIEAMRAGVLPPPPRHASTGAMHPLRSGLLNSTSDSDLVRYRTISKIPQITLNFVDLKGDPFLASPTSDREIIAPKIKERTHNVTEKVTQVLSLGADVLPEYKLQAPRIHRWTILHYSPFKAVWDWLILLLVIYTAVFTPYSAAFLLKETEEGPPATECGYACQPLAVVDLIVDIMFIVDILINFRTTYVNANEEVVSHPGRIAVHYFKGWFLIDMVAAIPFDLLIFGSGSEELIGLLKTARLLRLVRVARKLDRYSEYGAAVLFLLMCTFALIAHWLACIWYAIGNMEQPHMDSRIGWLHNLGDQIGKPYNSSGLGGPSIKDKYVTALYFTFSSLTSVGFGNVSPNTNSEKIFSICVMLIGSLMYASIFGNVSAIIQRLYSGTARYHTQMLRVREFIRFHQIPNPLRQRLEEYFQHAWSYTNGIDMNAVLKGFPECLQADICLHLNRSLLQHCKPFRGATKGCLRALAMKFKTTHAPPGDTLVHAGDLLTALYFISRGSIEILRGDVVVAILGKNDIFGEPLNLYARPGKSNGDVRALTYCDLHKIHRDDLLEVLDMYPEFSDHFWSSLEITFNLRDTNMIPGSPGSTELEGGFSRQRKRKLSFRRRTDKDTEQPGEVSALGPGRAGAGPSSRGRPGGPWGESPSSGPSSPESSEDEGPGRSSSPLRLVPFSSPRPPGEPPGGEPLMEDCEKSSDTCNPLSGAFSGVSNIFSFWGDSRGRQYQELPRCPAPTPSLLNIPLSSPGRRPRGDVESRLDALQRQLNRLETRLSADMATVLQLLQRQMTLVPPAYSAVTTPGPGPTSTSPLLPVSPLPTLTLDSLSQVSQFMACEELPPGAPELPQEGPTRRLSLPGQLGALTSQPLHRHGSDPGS
T4 sequence (P05177 whole entry): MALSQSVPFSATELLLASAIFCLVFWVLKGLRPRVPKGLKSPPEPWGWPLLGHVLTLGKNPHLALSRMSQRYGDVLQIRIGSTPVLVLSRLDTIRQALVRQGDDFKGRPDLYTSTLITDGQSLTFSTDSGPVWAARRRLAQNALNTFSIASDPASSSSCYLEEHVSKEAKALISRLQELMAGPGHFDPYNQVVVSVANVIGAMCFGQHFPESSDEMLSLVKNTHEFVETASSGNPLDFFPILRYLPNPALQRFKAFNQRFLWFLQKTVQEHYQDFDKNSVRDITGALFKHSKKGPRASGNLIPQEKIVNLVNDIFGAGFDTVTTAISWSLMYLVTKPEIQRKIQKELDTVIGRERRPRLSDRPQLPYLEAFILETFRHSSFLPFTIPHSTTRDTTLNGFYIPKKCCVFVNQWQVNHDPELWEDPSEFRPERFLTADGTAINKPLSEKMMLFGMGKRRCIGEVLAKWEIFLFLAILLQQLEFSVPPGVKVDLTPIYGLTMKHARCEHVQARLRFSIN
T3 sequence (P11712 whole entry): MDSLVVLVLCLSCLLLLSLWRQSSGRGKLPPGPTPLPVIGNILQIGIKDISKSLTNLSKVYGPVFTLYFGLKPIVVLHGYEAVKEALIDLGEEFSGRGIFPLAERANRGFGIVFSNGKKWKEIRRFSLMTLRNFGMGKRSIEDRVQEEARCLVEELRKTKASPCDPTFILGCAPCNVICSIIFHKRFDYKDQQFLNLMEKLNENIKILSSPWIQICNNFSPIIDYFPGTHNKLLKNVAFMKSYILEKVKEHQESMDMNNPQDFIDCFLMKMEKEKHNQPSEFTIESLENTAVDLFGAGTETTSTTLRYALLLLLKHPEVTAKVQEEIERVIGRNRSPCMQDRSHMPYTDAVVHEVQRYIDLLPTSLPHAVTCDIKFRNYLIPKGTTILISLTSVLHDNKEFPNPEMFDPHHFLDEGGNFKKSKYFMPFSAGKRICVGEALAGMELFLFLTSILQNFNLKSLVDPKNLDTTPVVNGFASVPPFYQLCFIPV
T5 sequence (P33261 whole entry): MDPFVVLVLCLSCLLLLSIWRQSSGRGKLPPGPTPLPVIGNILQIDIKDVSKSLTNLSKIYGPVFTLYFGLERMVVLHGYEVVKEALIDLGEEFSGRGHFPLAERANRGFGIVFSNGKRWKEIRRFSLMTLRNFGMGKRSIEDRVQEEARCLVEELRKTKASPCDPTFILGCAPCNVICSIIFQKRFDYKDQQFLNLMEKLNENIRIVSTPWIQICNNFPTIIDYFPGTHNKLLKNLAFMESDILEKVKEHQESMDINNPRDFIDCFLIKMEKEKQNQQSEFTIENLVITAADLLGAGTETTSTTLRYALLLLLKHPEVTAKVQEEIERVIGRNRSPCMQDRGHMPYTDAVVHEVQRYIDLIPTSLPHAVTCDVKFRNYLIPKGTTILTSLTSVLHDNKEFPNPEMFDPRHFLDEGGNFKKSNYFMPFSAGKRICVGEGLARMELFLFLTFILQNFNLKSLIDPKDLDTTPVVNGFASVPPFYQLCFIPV
T2 sequence (Q12809 whole entry): as the sequence (Q12809 whole entry) above

For O=C1CC[C@H](N2Cc3cc(C(=O)N[C@H](c4ncccc4Cl)C(F)(F)F)ccc3C2=O)C(=O)N1 [Compound 1, N-((R)-1-(3-chloropyridin-2-yl)-2,2,2-trifluoroethyl)-2-((S)-2,6-dioxopiperidin-3-yl)-1-oxoisoindoline-5-carboxamide], which “number of cell lines sensitive to Compound 1” value ([1]; of the 13 TP53 WT AML cell lines tested) is on record?
The value was 8.

What about the IC50 ([1]; the 8 sensitive of 13 TP53 WT AML cell lines tested) of the same molecule?
Its IC50 is 0.015 to 0.5 µM.

What about the “duration of sustained CK1α degradation” value ([2]; AML blasts in culture, FACS) of the same molecule?
Its value is “up to 5 days”.

What about the cellular outcome ([2]; leukemic cells) of the same molecule?
Its cellular outcome is “apoptotic outcome”.

What about the “duration of sustained p53 stabilization” value ([2]; leukemic cells) of the same molecule?
Its value is “up to 48 hours”.

And the “effects on heart rate, PR, QRS, QT, and QTc intervals” value [3]?
The value was “no Compound 1 related effects”.

What about the “precipitation in the assay” value ([4]; concentrations up to 30 μM) of the same molecule?
Its value is “did not precipitate”.

And the IC50 ([4]; hERG, IonWorks Barracuda patch clamp)?
The IC50 was over 30 µM.

And the inhibition at 30 µM [5]?
Its inhibition at 30 µM is 19%.

What about the “accumulation following multiple doses” value [6] of the same molecule?
The value was “No accumulation”.

What about the systemic clearance [6] of the same molecule?
The systemic clearance was “low”.

And the volume of distribution [6]?
The volume of distribution was “high”.

What about the bioavailability ([6]; rat, in vivo, po) of the same molecule?
Its bioavailability is at least 50%.

And the half-life ([6]; rat, in vivo, read-out: terminal half-life)?
The half-life was 1.5 to 1.7 h.

And the “accumulation following multiple doses” value [7]?
Its value is “No accumulation”.

And the systemic clearance [7]?
The systemic clearance was “low”.

And the volume of distribution [7]?
Its volume of distribution is “high”.

What about the bioavailability ([7]; monkey, in vivo, po) of the same molecule?
The bioavailability was at least 50%.

And the half-life ([7]; monkey, in vivo, read-out: terminal half-life)?
The half-life was 2.3 to 4.4 h.

And the time-dependent inhibition ([8]; CYP2C9, 30-minute preincubation with NADPH)?
The time-dependent inhibition was “not a time-dependent inhibition”.

And the IC50 ([8]; human liver microsomes, CYP2C9)?
The IC50 was over 30 µM.

And the IC50 ([9]; human liver microsomes, CYP3A4/5)?
Its IC50 is over 30 µM.

What about the inhibition at 30 min, 30 µM ([9]; human, liver microsomes, CYP3A4/5, at 30 μM, 30-minute preincubation with NADPH, read-out: time-dependent inhibition) of the same molecule?
Its inhibition at 30 min, 30 µM is under 20%.

What about the time-dependent inhibition ([10]; CYP1A2, 30-minute preincubation with NADPH) of the same molecule?
Its time-dependent inhibition is “not a time-dependent inhibition”.

And the inhibitory effect ([10]; human liver microsomes, CYP1A2)?
Its inhibitory effect is at most 25%.

What about the time-dependent inhibition ([11]; CYP2C19, 30-minute preincubation with NADPH) of the same molecule?
Its time-dependent inhibition is “not a time-dependent inhibition”.

What about the inhibitory effect ([11]; human liver microsomes, CYP2C19) of the same molecule?
Its inhibitory effect is at most 25%.

And the “toxicity to the bacteria” value ([12]; highest concentrations tested)?
Its value is “non-toxic”.

What about the “induction of mutagenicity (revertant colony numbers)” value ([12]; up to 5000 μg/plate, presence and absence of S9 mix) of the same molecule?
Its value is “negative”.

Source: patent publication US20220387405A1, “METHODS OF TREATMENT WITH N-((R)-1-(3-CHLOROPYRIDIN-2-YL)-2,2,2-TRIFLUOROETHYL)-2-((S)-2,6-DIOXOPIPERIDIN-3-YL)-1-OXOISOINDOLINE-5-CARBOXAMIDE” (CELGENE CORPORATION, priority 2021, published 2022)
